Experimental data reported in DBAASP.
In brackets after ≈: the same amount, converted by molar mass. One block for each molecule: values may come before it.

Columns and labels:
Assay in all cases: ≥ marks a high value that may be exact or a test limit, other limits are often not marked, values filed in µg/mL are converted to µM
Bacillus subtilis = tested on: Bacillus subtilis
[1] = tested on: Staphylococcus sciuri P254
[2] = tested on: Enterococcus faecalis E1478F
[3] = tested on: Staphylococcus aureus RN4220
Staphylococcus aureus = tested on: Staphylococcus aureus
[4] = tested on: Klebsiella pneumoniae 123132
[5] = tested on: Salmonella enterica subsp. enterica serovar Typhimurium ATCC 700408
Escherichia coli BL21AI = tested on: Escherichia coli BL21AI
[6] = tested on: Salmonella enterica subsp. enterica serovar Typhi S5
[7] = tested on: Klebsiella pneumoniae K6 ATCC 700603
Escherichia coli 45849 = tested on: Escherichia coli 45849
Escherichia coli D31 = tested on: Escherichia coli D31
[8] = tested on: Staphylococcus aureus IFO 12732
[9] = tested on: Bacillus subtilis IFO 3037
[10] = tested on: Escherichia coli IFO 14237
[11] = tested on: Escherichia coli ATCC 35218
Escherichia coli ESBL = tested on: Escherichia coli ESBL
[12] = tested on: Escherichia coli ATCC 43827
[13] = tested on: Escherichia coli ATCC 11775
Escherichia coli ESBL 4 = tested on: Escherichia coli ESBL 4
[14] = tested on: Pseudomonas aeruginosa ATCC 27853
[15] = tested on: Escherichia coli ATCC 25922
[16] = tested on: Staphylococcus aureus ATCC 29213
[17] = tested on: Lacticaseibacillus rhamnosus 7469
[18] = tested on: Lacticaseibacillus rhamnosus 1.0386
[19] = tested on: Staphylococcus aureus ATCC 43300
[20] = tested on: Lacticaseibacillus rhamnosus 1.0911
[21] = tested on: Lacticaseibacillus rhamnosus 1.0925
[22] = tested on: Lactiplantibacillus plantarum 8014
Escherichia coli UB1005 = tested on: Escherichia coli UB1005
[23] = tested on: Staphylococcus epidermidis ATCC 12228
[24] = tested on: Lacticaseibacillus rhamnosus 1.0385
Klebsiella pneumoniae = tested on: Klebsiella pneumoniae
Citrobacter freundii = tested on: Citrobacter freundii
[25] = tested on: Staphylococcus haemolyticus
[26] = tested on: Salmonella enterica subsp. enterica serovar Paratyphi A
[27] = tested on: Salmonella enterica subsp. enterica serovar Typhimurium ATCC 14028
[28] = tested on: Staphylococcus aureus ATCC 6538
[29] = tested on: Enterococcus faecalis ATCC 29212
[30] = tested on: Streptococcus dysgalactiae subsp. dysgalactiae ATCC 27957
[31] = tested on: Streptococcus agalactiae ATCC 27956
[32] = tested on: Bacillus cereus ATCC 10876
[33] = tested on: Streptococcus equi subsp. zooepidemicus ATCC 43079

MIC (Bacillus subtilis): 2.83 µM (≈ 3.91 µg/mL)
MIC [1]: ≥ 45.2 µM
MIC [2]: 2.83 µM (≈ 3.91 µg/mL)
MIC [3]: ≥ 45.2 µM
MIC (Staphylococcus aureus): 45.2 µM (≈ 62.5 µg/mL)
SMILES: CC[C@H](C)[C@H](NC(=O)[C@H](CC(C)C)NC(=O)[C@@H]1CCCN1C(=O)[C@H](CC(C)C)NC(=O)[C@@H](N)Cc1ccccc1)C(=O)NCC(=O)NCC(=O)N[C@@H](CC(C)C)C(=O)N[C@@H](CC(C)C)C(=O)N[C@@H](CO)C(=O)N[C@@H](CCCCN)C(=O)N[C@@H](CC(C)C)C(=O)N[C@@H](CC(C)C)C(N)=O [FLPLIGGLLSKLL]

MIC [4]: 7.59 µM (≈ 16 µg/mL)
MIC [5]: 0.0593 µM (≈ 0.125 µg/mL)
MIC (Escherichia coli BL21AI): 0.237 µM (≈ 0.5 µg/mL)
MIC [6]: 0.0593 µM (≈ 0.125 µg/mL)
MIC [7]: 7.59 µM (≈ 16 µg/mL)
MIC (Escherichia coli 45849): 0.237 µM (≈ 0.5 µg/mL)
MIC (Escherichia coli D31): 0.474 µM (≈ 1 µg/mL)
SMILES: CC[C@H](C)[C@H](NC(=O)[C@H](Cc1ccc(O)cc1)NC(=O)[C@@H](NC(=O)[C@@H]1CCCN1C(=O)[C@H](CCCN=C(N)N)NC(=O)[C@H](CC(N)=O)NC(=O)[C@H](CC(N)=O)NC(=O)CN)C(C)C)C(=O)N1CCC[C@H]1C(=O)N[C@@H](CCC(N)=O)C(=O)N1CCC[C@H]1C(=O)N[C@@H](CCCN=C(N)N)C(=O)N1CCC[C@H]1C(=O)N1CCC[C@H]1C(=O)N[C@@H](Cc1cnc[nH]1)C(=O)N1CCC[C@H]1C(=O)N[C@@H](CCCN=C(N)N)C(=O)N[C@@H](CC(C)C)C(N)=O [GNNRPVYIPQPRPPHPRL]

MIC [8]: 25 µM (≈ 61.4 µg/mL)
MIC [9]: ≥ 50 µM
MIC [10]: 25 µM (≈ 61.4 µg/mL)
SMILES: CC[C@H](C)[C@H](N)C(=O)N[C@H](C(=O)NCC(=O)N[C@@H](CC(C)C)C(=O)N[C@H](C(=O)N[C@@H](CO)C(=O)N[C@@H](CCCCN)C(=O)NCC(=O)N[C@H](C(=O)N[C@H]1CSSC[C@@H](C(=O)N[C@@H](CCCCN)C(=O)N[C@@H](CCCCN)C(=O)N[C@H](C(=O)N[C@@H](CC(C)C)C(=O)N[C@@H](CCCCN)C(=O)N[C@@H](CCC(N)=O)C(N)=O)C(C)C)NC(=O)[C@H](C(C)C)NC(=O)[C@H]([C@@H](C)O)NC(=O)[C@H](CCCCN)NC(=O)[C@H](C(C)C)NC(=O)[C@H](CC(C)C)NC(=O)[C@H](C(C)C)NC1=O)[C@@H](C)O)C(C)C)[C@@H](C)CC [IIGLVSKGTCVLVKTVCKKVLKQ]

MIC [11]: 12.5 µM (≈ 24.9 µg/mL)
MIC (Escherichia coli ESBL): ≥ 50 µM
MIC [12]: 6 µM (≈ 11.9 µg/mL)
MIC [13]: ≥ 100 µM
MIC (Escherichia coli ESBL 4): ≥ 100 µM
MIC [14]: > 100 µM
MIC [15]: 25 µM (≈ 49.7 µg/mL)
SMILES: CC[C@H](C)[C@H](NC(=O)[C@H](Cc1ccc(O)cc1)NC(=O)[C@H](CCC(N)=O)NC(=O)[C@H](CC(C)C)NC(=O)[C@H](C)NC(=O)[C@H](CCCCN)NC(=O)[C@H](CCCCN)NC(=O)[C@H](CCSC)NC(=O)[C@H](CCCCN)NC(=O)[C@H](CCCCN)NC(=O)[C@@H](N)CCCCN)C(=O)N[C@@H](CCCCN)C(=O)N[C@@H](CC(C)C)C(=O)N[C@@H](CC(C)C)C(=O)N[C@@H](CCCCN)C(=O)N[C@@H](CCC(=O)O)C(N)=O [KKKMKKALQYIKLLKE]

MIC [16]: > 64 µM
MIC [17]: ≥ 64 µM
MIC [18]: ≥ 64 µM
MIC [19]: > 64 µM
MIC [20]: ≥ 64 µM
MIC [14]: > 64 µM
MIC [21]: ≥ 64 µM
MIC (Escherichia coli UB1005): ≥ 64 µM
MIC [23]: > 64 µM
MIC [15]: > 64 µM
MIC [24]: ≥ 64 µM
SMILES: NC(=O)C[C@H](NC(=O)[C@H](Cc1c[nH]c2ccccc12)NC(=O)[C@H](Cc1c[nH]c2ccccc12)NC(=O)[C@H](Cc1c[nH]c2ccccc12)NC(=O)[C@H](CC(N)=O)NC(=O)[C@H](Cc1c[nH]c2ccccc12)NC(=O)[C@H](CCCN=C(N)N)NC(=O)[C@@H](N)CCCN=C(N)N)C(=O)N[C@@H](Cc1c[nH]c2ccccc12)C(=O)N[C@@H](CCCN=C(N)N)C(=O)N[C@@H](CCCN=C(N)N)C(N)=O [RRWNWWWNWRR]
MIC [22]: ≥ 64 µM

MIC (Klebsiella pneumoniae): 2.06 µM (≈ 4.24 µg/mL)
MIC (Citrobacter freundii): 2.91 µM (≈ 6 µg/mL)
MIC [26]: 5.83 µM (≈ 12 µg/mL)
SMILES: CC(C)C[C@H](NC(=O)[C@H](CCCCN)NC(=O)[C@H](CC(C)C)NC(=O)[C@H](CCCCN)NC(=O)[C@H](CS)NC(=O)[C@H](CC(C)C)NC(=O)[C@H](Cc1c[nH]c2ccccc12)NC(=O)CNC(=O)[C@H](CCCCN)NC(=O)[C@H](CS)NC(=O)[C@@H]1CCCN1C(=O)[C@H](CCCCN)NC(=O)[C@H](CCCN=C(N)N)NC(=O)[C@H](CCCN=C(N)N)NC(=O)[C@H](CO)NC(=O)[C@@H](N)CO)C(=O)N[C@@H](CCCN=C(N)N)C(=O)O [SSRRKPCKGWLCKLKLR]
MIC [25]: 1.46 µM (≈ 3 µg/mL)

MIC [27]: > 10.5 µM
MIC [28]: > 10.5 µM
MIC [29]: > 10.5 µM
MIC [14]: > 10.5 µM
MIC [30]: 13.2 µM (≈ 40.2 µg/mL)
MIC [31]: 13.2 µM (≈ 40.2 µg/mL)
MIC [32]: 10.5 µM (≈ 32 µg/mL)
MIC [33]: 13.2 µM (≈ 40.2 µg/mL)
MIC [15]: 1.64 µM (≈ 5 µg/mL)
SMILES: CC[C@H](C)[C@H](NC(=O)CNC(=O)[C@H](CCCN=C(N)N)NC(=O)[C@H](CCCCN)NC(=O)[C@H](CO)NC(=O)[C@H](CCCN=C(N)N)NC(=O)[C@H](CCCN=C(N)N)NC(=O)[C@@H](N)C(C)C)C(=O)N[C@@H](CCCCN)C(=O)N[C@H](C(=O)N1CCC[C@H]1C(=O)N[C@@H](CO)C(=O)N[C@@H](Cc1ccccc1)C(=O)N[C@H](C(=O)N[C@@H](CCCCN)C(=O)N[C@@H](CCCCN)C(=O)N[C@H](C(=O)N[C@@H](CC(C)C)C(=O)N[C@@H](CCCCN)C(=O)N[C@@H](CC(=O)O)C(=O)N[C@H](C(=O)N[C@H](C(=O)N[C@@H](CO)C(=O)N[C@@H](CCC(=O)O)C(=O)N[C@@H](CO)C(=O)N[C@H](C(=O)N[C@@H](CO)C(=O)O)[C@@H](C)CC)C(C)C)C(C)C)C(C)C)C(C)C)C(C)C [VRRSKRGIKVPSFVKKVLKDVVSESIS]
